Assay [1] has as its system FLIP. The assay is described as follows: FLIP protein levels by SDS-PAGE/immunoblotting. It counts as cell-based, human. Particulars: Example 2; PPC-1 cells, increasing concentrations, 16 hours. On the procedure:
FIG. 7. Effect of FAS-sensitizing compounds on levels of FLIP protein and DISC activation. (A) PPC-1 cells (2×10^5) were seeded into 35 mm plates and treated the next day with various FAS-sensitizing compounds (30 μM), with (+) or without (−) CH-11 antibody (100 ng/mL). As a positive control, cells were treated with CDDO (5 μM). Cell lysates were prepared 24 hours later, normalized for total protein content, and analyzed by SDS-PAGE/immunoblotting using antibodies specific for FLIP or a-tubulin. (B) PPC-1, OVCAR-3, T47D, MDA-MB-468 and DU 145 cells (2×10^5) were seeded into 35 mm plates and treated the next day with 5809354 (40 μM). Cell lysates were prepared 24 hours after treatment, normalized for total protein and analyzed by SDS-PAGE/immunoblotting using antibodies specific for FLIP or β-actin. (C) PPC-1, OVCAR-3, T47D, and DU 145 cells (2×10^5) were seeded into 35 mm plates and treated the next day with 5809354 (40 μM) (black bars) or buffer control (white bars). mRNA was extracted 24 hours after treatment. Levels of the long isoform of FLIP and GAPDH were detected by quantitative RT-PCR. Levels of FLIP were normalized for GAPDH expression and expressed as a mean fold change+SD over buffer treated cells. (D) PPC-1 cells (2×10^5) were seeded into 35 mm plates and treated the next day with various FAS-sensitizing compounds (30 μM) with (+) or without (−) CH-11 (100 ng/mL). Cell lysates were prepared 24 hours after treatment, normalized for total protein, and analyzed by SDS-PAGE/immunoblotting using antibodies specific for caspase-8 and β-actin.
(§1) FIG. 13. Small molecule down-regulation of FLIP sensitizes prostate cancer cells to anoikis. (A) PPC-1 cells were seeded overnight in adherent conditions and then treated with increasing concentrations of 5809354 for 16 hours. After incubation, cells were harvested. Total cellular RNA was extracted and mRNA levels of the long isoform of FLIP (FLIPL), the short isoform of FLIP (FLIPS), or rRNA levels of 18S were detected by real-time RT-PCR. Data were normalized using the ΔΔCT method and expressed as the mean±SEM percent of […] expression relative to untreated controls. (B) PPC-1 cells were cultured and treated as in panel A. Total cellular protein was isolated and analyzed by SDS-PAGE immunoblotting using anti-FLIP and anti-Actin antibodies. (C) PPC-1 cells were seeded overnight in adherent conditions and then exposed to increasing concentrations of 5809354 in the presence or absence of Fas-activating antibody (CH-11, 100 ng/mL). Thirty hours after incubation, cell viability was determined using the MTS assay. Data represents the mean±SEM of percent of viable cells. (D) PPC-1 cells were seeded overnight in adherent or suspension conditions and then treated with increasing concentrations of 5809354 for 30 hours. After incubation, apoptosis was measured by flow cytometry to detect cell surface annexin V expression and PI. Data represents the mean±SEM of percent of viable cells. (E) Cells were harvested, fixed, stained with DAPI, and nuclear morphology analyzed by fluorescence microscopy. Arrowheads refer to fragmented nuclei indicative of apoptosis. […] Thirty hours after incubation, cells were harvested and equal volumes plated in a colony formation assay. One week later, cells were stained with methylene blue and the number of colonies counted. Data represents the mean ±SEM percent of colonies relative to untreated controls.
Immunoblot analysis. Protein extracts were obtained by washing cells with phosphate-buffered saline (PBS) [pH 7.4] and suspending the cells in lysis buffer [10 mM Tris (pH 7.4), 150 mM NaCl, 0.1% Triton X-100, 0.5% sodium deoxycholate, and 5 mM EDTA] containing protease inhibitors (Complete tablets; Roche, Indianapolis, Ind.). Immunoblot assays were performed as described in Carter et al. (2005). […]

Assay [2] deals with PPC-1 cells. Nature of the assay: Anoikis of PPC-1 cells in suspension versus adherent conditions (annexin V/PI, DAPI, colony formation). Format: cell-based, human. As for the experimental part: FIG. 12. Depletion of endogenous FLIP levels by siRNA sensitizes malignant cells to anoikis. (A) PPC-1 cells were seeded in adherent conditions overnight and then transfected with 25 nM anti-FLIP siRNA (siFLIP) or control luciferase siRNA (siCtrl). Thirty hours after transfection, cells were harvested, total protein isolated and analyzed by SDS-PAGE immunoblotting using anti-FLIP and anti-actin antibodies. (B) PPC-1 cells were transfected with increasing concentrations of siFLIP or siCtrl. After transfection, cells were treated with CH-11 Fas activating antibody (100 ng/ml). Thirty hours after incubation, cells were harvested and apoptosis measured by flow cytometry to detect cell surface annexin V expression and PI uptake. Data represents the mean±SEM percent of viable cells. (C) PPC-1 cells were transfected with increasing concentrations of siFLIP or siCtrl. After transfection, cells were subcultured under suspension conditions for 30 hours and then harvested. Apoptosis was measured by flow cytometry to detect cell surface annexin V expression and PI uptake. Data represents the mean±SEM of percent of viable cells. (D) Equal volumes of PPC-1 cells from panel C were replated under adherent conditions to permit clonogenic growth. One week after replating, cells were stained with methylene blue and the number of colonies counted. Data represents the mean±SEM percent of colonies compared to untreated controls.
as §1
FIG. 15. 5809354 sensitizes cells to anoikis through a caspase 8 dependent mechanism. (A) PPC-1 cells (5×10^4) were cultured under suspension conditions overnight and then treated with 5809354 in the presence or absence of the pan-caspase inhibitor z-VAD-fink (100 μM). Thirty hours after incubation, anoikis was determined by flow cytometry to detect cell surface annexin V expression and PI uptake. Data represents the mean±SEM percent of viable cells or colonies compared to untreated controls. (B) PPC-1 cells (5×10^4) were cultured in suspension conditions overnight and then treated with 5809354 (60 μM). […]

Assay [3] has as its system PPC-1 cells. Nature of the assay: MTS viability of adherent PPC-1 cells with or without CH-11, thirty hours. It counts as cell-based, human. Particulars: CH-11 100 ng/mL. On the procedure: FIG. 13. Small molecule down-regulation of FLIP sensitizes prostate cancer cells to anoikis. (A) PPC-1 cells were seeded overnight in adherent conditions and then treated with increasing concentrations of 5809354 for 16 hours. After incubation, cells were harvested. Total cellular RNA was extracted and mRNA levels of the long isoform of FLIP (FLIPL), the short isoform of FLIP (FLIPS), or rRNA levels of 18S were detected by real-time RT-PCR. Data were normalized using the ΔΔCT method and expressed as the mean±SEM percent of […] expression relative to untreated controls. (B) PPC-1 cells were cultured and treated as in panel A. Total cellular protein was isolated and analyzed by SDS-PAGE immunoblotting using anti-FLIP and anti-Actin antibodies. […] Thirty hours after incubation, cell viability was determined using the MTS assay. […] After incubation, apoptosis was measured by flow cytometry to detect cell surface annexin V expression and PI. […] (E) Cells were harvested, fixed, stained with DAPI, and nuclear morphology analyzed by fluorescence microscopy. […] One week later, cells were stained with methylene blue and the number of colonies counted. […]
Cell viability apoptosis, colony formation, and caspase activation assays. Cell viability was assessed using the MTS reduction assay (Promega, Madison, Wis., USA) according to the manufacturer's protocols and as described in Schimmer et al. (2006). […]

For assay [4], the system named is FLIP. Particulars: previously shown (Kim et al., 2002); cited from earlier work.
In assay [5] the test system is PPC-1 cells. The assay is described as follows: MTT viability of PPC-1 cells with extrinsic (CH-11, TRAIL) or intrinsic (VP-16, staurosporine) pathway stimuli. Format: cell-based, human. Particulars: CH-11, TRAIL versus VP-16, STS, MTT 24 hours. On the procedure: FIG. 4. Small molecules selectively sensitize to extrinsic pathway stimuli. PPC-1 cells (1×10^4) were seeded overnight in 96 well plates. The next day, cells were treated with increasing concentrations of 6094911, 5809354, 5703229, or 5569100 in combination with increasing concentrations of CH-11 or TRAIL to activate the extrinsic pathway or with VP-16 or staurosporine to activate the intrinsic pathway. Cell viability was measured 24 hours later by MTT assay. Cell viability is expressed as a mean percentage of untreated cells+SD(n=3).
Statistics. Cytotoxicity induced by compounds used in combination with conventional agents (e.g., CH-11, TRAIL, VP-16 and staurosporine) was evaluated for evidence of synergy toxicity by comparing the slopes of the dose-response curves. […]
The 9 compounds identified using anti-FAS antibody screening theoretically could non-specifically sensitize tumor cells to apoptotic stimuli or they could be selective for the extrinsic pathway. […] Accordingly, PPC-1 cells were treated with various concentrations of compounds with or without CH-11, TRAIL, VP-16, or STS, and 24 hours later, cell viability was measured by MTT assays.

Molecules are shown by their SMILES.

With `CCOCCCNC(=O)CCCOc1ccc(Cl)cc1C` [compound 7271570, (4-(4-chloro-2-methylphenoxy))-N-(3-ethoxypropyl)-butanamide], the FLIP protein expression result in assay [1] is “failed to decrease FLIP levels”. Besides, the sensitization to anoikis result in assay [2] (suspension conditions, 30 hours) is “failed to sensitize”. For the same compound, the “colony formation after suspension culture” value in assay [2] (thirty hours in suspension, colonies counted one week later) was “inactive”. Moreover, the “viability in the presence of Fas-activating antibody (CH-11)” value in assay [3] is “failed to sensitize”.

On to `CC1(C)CC[C@]2(C(=O)O)CC[C@]3(C)[C@H](C(=O)C=C4[C@@]5(C)C=C(C#N)C(=O)C(C)(C)[C@@H]5CC[C@]43C)[C@@H]2C1` [CDDO, 2-cyano-3,12-dioxooleana-1,9-dien-28-oic acid], for which the FLIP protein levels entry in assay [4] is reported as “reduce FLIP protein levels”.

Consider `C[n+]1ccn2c3c(c4cc(C5CCCCC5)ccc42)CCCc31.[I-]` [compound 5362611, 8-Cyclohexyl-3-methyl-5,6-dihydro-4H-pyrazino[3,2,1-jk]carbazol-3-ium; iodide], for which, in assay [5], the “sensitization to extrinsic versus intrinsic pathway stimuli” value was “sensitized to both the death receptor (extrinsic) and mitochondrial pathway (intrinsic) stimuli”.

Source of the values: US8008354B2, “Death receptor sensitizing compounds and methods of use therefor” (Burnham Institute for Medical Research, priority 2006, dated 2011).
